# Tests used:
# Experiment in all cases: relative viability (nuclei count vs DMSO), 5 days (fraction); higher = more cells survive
# Kobe2602 + Alpelisib = compound: C1=CC(=CC=C1NC(=S)NNC2=C(C=C(C=C2[N+](=O)[O-])C(F)(F)F)[N+](=O)[O-])F [Kobe2602] + Cc1nc(NC(=O)N2CCC[C@H]2C(N)=O)sc1-c1ccnc(C(C)(C)C(F)(F)F)c1 [Alpelisib] (partner 2 µM)
# Procedure, shortened: (§1)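 The day after seeding in 1536-well plates, lung cancer cell lines were treated by pin tool with a single drug, or with a fixed anchor-drug dose together with five library-drug doses (not always all listed) in √10 steps. After 5 days, a combined fix-and-stain solution (final 0.05% Triton X-100, 1% formaldehyde, 1 ug/ml Hoechst) was added. Nuclei counted on 4× images gave relative viability as treated counts over vehicle counts, reported as the median of duplicate plates.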
# Kobe2602 + Olaparib = compound: C1=CC(=CC=C1NC(=S)NNC2=C(C=C(C=C2[N+](=O)[O-])C(F)(F)F)[N+](=O)[O-])F [Kobe2602] + O=C(c1cc(Cc2n[nH]c(=O)c3ccccc23)ccc1F)N1CCN(C(=O)C2CC2)CC1 [Olaparib] (partner 8 µM)
# Procedure, shortened: as §1
# [1] = compound: COc1cc2nccc(Oc3ccc(NC(=O)C4(C(=O)Nc5ccc(F)cc5)CC4)cc3)c2cc1OC [Cabozantinib] + CC(=O)Nc1cccc(-n2c(=O)n(C3CC3)c(=O)c3c(Nc4ccc(I)cc4F)n(C)c(=O)c(C)c32)c1 [Trametinib] (partner 0.02 µM)
# Procedure, shortened: as §1
# Cabozantinib + Lapatinib = compound: COc1cc2nccc(Oc3ccc(NC(=O)C4(C(=O)Nc5ccc(F)cc5)CC4)cc3)c2cc1OC [Cabozantinib] + CS(=O)(=O)CCNCc1ccc(-c2ccc3ncnc(Nc4ccc(OCc5cccc(F)c5)c(Cl)c4)c3c2)o1 [Lapatinib] (partner 2 µM)
# Procedure, shortened: as §1
Cell Line,relative viability (Kobe2602 + Alpelisib; first compound 0.2 µM),relative viability (Kobe2602 + Alpelisib; first compound 0.6325 µM),relative viability (Kobe2602 + Alpelisib; first compound 2 µM),relative viability (Kobe2602 + Alpelisib; first compound 6.325 µM),relative viability (Kobe2602 + Alpelisib; first compound 20 µM),relative viability (Kobe2602 + Olaparib; first compound 0.2 µM),relative viability (Kobe2602 + Olaparib; first compound 0.6325 µM),relative viability (Kobe2602 + Olaparib; first compound 2 µM),relative viability (Kobe2602 + Olaparib; first compound 6.325 µM),relative viability (Kobe2602 + Olaparib; first compound 20 µM),relative viability ([1]; first compound 0.02 µM),relative viability ([1]; first compound 0.06325 µM),relative viability ([1]; first compound 0.2 µM),relative viability ([1]; first compound 0.6325 µM),relative viability ([1]; first compound 2 µM),relative viability (Cabozantinib + Lapatinib; first compound 0.02 µM),relative viability (Cabozantinib + Lapatinib; first compound 0.06325 µM),relative viability (Cabozantinib + Lapatinib; first compound 0.2 µM),relative viability (Cabozantinib + Lapatinib; first compound 0.6325 µM),relative viability (Cabozantinib + Lapatinib; first compound 2 µM)
201T,1.09,1.01,0.968,1.11,1.09,0.815,0.859,0.869,0.866,0.826,0.71,0.731,0.686,0.729,0.727,1.02,1.14,0.991,0.999,1.08
A549,0.716,0.905,0.74,0.846,0.789,0.45,0.484,0.281,0.315,0.513,,,,,,0.996,1.03,0.872,0.926,0.807
A-427,1.11,1.12,1.06,1.05,1.1,0.74,0.726,0.73,0.785,0.701,0.729,0.801,0.772,0.762,0.743,1.1,1.11,0.963,1.02,1.08
ABC-1,0.785,1.06,1.13,1.11,1.08,0.639,0.623,0.747,0.773,0.775,,,,,,1.42,1.1,1.11,1.1,1.13
BEN,1.07,1.12,0.947,0.883,1.03,1.08,1.02,1,1.07,0.973,0.979,1.08,0.998,0.982,0.77,0.702,0.814,0.846,0.67,0.63
CAL-12T,0.92,1.39,0.67,0.981,1.19,0.697,0.685,0.678,0.707,0.784,0.331,0.357,0.33,0.371,0.365,0.708,0.653,0.701,,0.529
COR-L23,0.752,0.827,0.809,0.885,0.83,0.316,0.394,0.351,0.361,0.326,0.666,0.679,0.679,0.623,0.576,1.04,1.14,0.947,1.12,0.878
COR-L 105,0.771,1.08,0.78,0.973,0.938,0.658,0.718,0.425,0.588,0.686,0.422,0.377,0.4,0.405,0.481,0.321,0.341,,0.352,0.372
Calu-6,0.883,1.04,0.96,1,0.987,0.581,0.589,0.606,0.631,0.514,,,,,,1.14,1.2,1.15,0.986,1.05
ChaGo-K-1,,,,,,0.362,0.406,0.4,0.355,0.332,0.838,0.906,0.928,0.893,0.899,,,,,
EBC-1,0.876,0.963,0.958,0.839,0.894,0.687,0.684,0.69,0.647,0.759,,,,,,0.192,0.17,0.242,0.195,0.213
EKVX,0.886,0.852,0.826,0.913,0.925,0.749,0.792,0.864,0.786,0.808,0.377,0.406,0.249,0.409,0.351,0.172,0.207,0.203,0.21,0.191
EMC-BAC-2,0.745,0.827,0.733,0.817,0.738,0.511,0.531,0.46,0.559,0.532,0.912,0.949,0.823,0.854,0.934,0.841,0.927,0.88,0.879,0.973
EPLC-272H,0.883,1.08,0.908,0.885,0.925,0.905,0.744,0.578,0.663,0.943,0.275,0.318,0.275,0.246,0.245,0.899,1.22,0.877,0.97,0.701
H3255,0.655,0.679,0.662,0.63,0.741,0.561,0.562,0.515,0.532,0.559,0.687,0.639,,0.749,0.64,0.182,0.234,,0.366,0.217
HARA,0.934,0.943,0.797,0.752,0.791,0.868,1.03,0.914,0.958,0.78,0.749,0.772,,0.883,0.633,0.582,0.806,0.856,0.809,0.639
HCC-15,0.797,0.938,0.875,0.849,0.885,0.691,0.727,0.609,0.742,0.837,0.417,0.373,0.36,0.356,0.314,0.85,0.879,0.783,0.843,0.965
HCC-44,0.852,0.793,0.767,0.725,0.737,0.965,0.983,0.955,0.951,0.898,1.04,1.15,1.21,1.06,1.04,1.09,1.12,1,1.11,1.04
